Measurements from article PMC9551036, “A selective and orally bioavailable VHL-recruiting PROTAC achieves SMARCA2 degradation in vivo” (Nature Communications, 2022).
Several values for one entry are separate records, joined by “and”; a condition that tells them apart may be missing. Equal values may be shown once. Read-outs that look alike come from different tables or passages of the source.

Legend:
[1] = Plasma protein binding; assay type: in vitro ADME
Method: Binding of compound to plasma proteins was determined by equilibrium dialysis of 3 µmol/L compound in plasma (or plasma dilutions in PBS) against PBS through an 8 kDa molecular-weight cut-off cellulose membrane (RED device, Thermo Fisher) at 37 °C for 5 h. After incubation, aliquots from donor and acceptor compartments were precipitated and the concentrations in the supernatants were determined by quantitative LC-MS/MS. Calibration and quality control samples were prepared using blank plasma and internal standard. The fraction unbound was calculated as ratio of the compound concentration in the acceptor compartment to the concentration in the donor compartment.

[2] = Bidirectional permeability measurement in Caco-2 cells; assay type: in vitro ADME; details: human
How it was run: (§1)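 Caco-2 monolayers grown 14–21 days, preincubated 24 h with medium containing 1 µM compound; bidirectional transport sampled up to 2 h, quantified by LC-MS/MS, ± 5 µM zosuquidar (P-gp inhibitor). Papp,AB and Papp,BA from receiver amount, donor C0, area and time; efflux ratio = Papp,BA/Papp,AB (duplicate means). TEER checked per plate.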

[3] = test system: P-gp; experiment: as above; assay type: in vitro ADME; details: human, Caco-2, pH 7.4, with zosuquidar 5 µM; for Papp B→A at 2 h, 1 µM: Modified Caco-2, b to a, + PGPi (Zosuquidar), read-out: Modified Caco-2 Pba + PGPi (Zosuquidar)
How it was run: as §1

[4] = target: SMARCA2 (Homo sapiens, UniProt P51531); experiment: SMARCA2 capillary electrophoresis protein assay in other cell lines (A549, NCI-H1568, HCT116, LU99, HCC-364, HCT-15, HCC4006, SK-N-AS); assay type: cell-based; set-up: endogenous in cells; host or cells: RKO, NCI-H1568, A549, HCT116, LU99, HCC-364, HCT-15, HCC4006, SK-N-AS
Method: 130,000–200,000 cells were seeded in 24-well plates and incubated until settled down or overnight. Compounds were dissolved in DMSO and added to cells in indicated concentrations using a digital dispenser following an optional media change. Cells were incubated for 4 or 18 h as indicated. For SMARCA2/4 half-life determination, 150,000 or 200,000 cells were seeded in 24-well plates. The next day, 50 µg/ml cycloheximide (Sigma) was added and cells were incubated for 1–24 h. For SMARCA2/4 re-synthesis measurements, 200,000 cells were seeded in 24-well plates. The next day, 100 nM compound 6 was added for 4 h to degrade SMARCA2/4, and a sample was taken as baseline for normalisation. To allow re-synthesis, a VHL binder (compound 32, 25 or 50 µM) was then added for 3 or 24 h. Medium was removed, cells were washed with PBS and lysed with 80 µl Lysis Buffer (MSD Tris Lysis Buffer (#R60TX-2) + Halt Inhibitor Cocktail (100x) + Benzonase 0.5 µL/ml). Samples were frozen at −80 °C and thawed at room temperature before use. Samples were transferred to a V-bottom plate and insoluble debris was pelleted by centrifugation for 5 min at maximum speed. The supernatant was transferred to a fresh plate. Master Mix and Ladder were prepared according to manufacturer’s instructions for 12–230 kDa Wes Separation Module, 8 × 25 capillary cartridges, Protein Simple #SM-W004 with Anti-Rabbit Detection Module for Wes, Peggy Sue or Sally Sue, Protein Simple #DM-001. 4.8 µl lysate were mixed with 1.2 µl Master Mix to achieve a protein concentration of ~0.5 µg/µl. Antibodies were diluted in Antibody Diluent II (SMARCA2 Sigma #HPA029981 RRID:AB_10602406 1:25–100, SMARCA4 Cell Signalling #49360 clone D1Q7F RRID:AB_2728743 1:15–120 or Abcam #ab110641 clone EPNCIR111A RRID:AB_10861578 1:60, GAPDH Abcam #ab9485 RRID:AB_307275 1:250). Wes plates were prepared and run according to manufacturer’s instructions. Proteins were quantified with accompanying Compass Software. SMARCA2/4 protein levels were normalised to GAPDH. […] Where applicable, curves were fitted using a 4-parametric logistic model.

[5] = bovine, 10% calf plasma dilution in PBS, 10% calf, fraction unbound, read-out: PPB fu 10% Calf
[6] = bovine, 10% plasma (plasma dilution in PBS), 10% calf, read-out: PPB fu 10% Calf
[7] = Caco-2, pH 7.4, Caco-2, read-out: Caco-2 Pab
[8] = Caco-2, pH 7.4, Modified Caco-2, read-out: Modified Caco-2 Pab
[9] = NCI-H1568 (4 h), mean ± SD, read-out: SMARCA2 DC50
[10] = NCI-H1568, 4h, individual replicates, read-out: NCI-H1568 (4h) SMARCA2 DC50

Sequence of SMARCA2 (P51531 whole entry): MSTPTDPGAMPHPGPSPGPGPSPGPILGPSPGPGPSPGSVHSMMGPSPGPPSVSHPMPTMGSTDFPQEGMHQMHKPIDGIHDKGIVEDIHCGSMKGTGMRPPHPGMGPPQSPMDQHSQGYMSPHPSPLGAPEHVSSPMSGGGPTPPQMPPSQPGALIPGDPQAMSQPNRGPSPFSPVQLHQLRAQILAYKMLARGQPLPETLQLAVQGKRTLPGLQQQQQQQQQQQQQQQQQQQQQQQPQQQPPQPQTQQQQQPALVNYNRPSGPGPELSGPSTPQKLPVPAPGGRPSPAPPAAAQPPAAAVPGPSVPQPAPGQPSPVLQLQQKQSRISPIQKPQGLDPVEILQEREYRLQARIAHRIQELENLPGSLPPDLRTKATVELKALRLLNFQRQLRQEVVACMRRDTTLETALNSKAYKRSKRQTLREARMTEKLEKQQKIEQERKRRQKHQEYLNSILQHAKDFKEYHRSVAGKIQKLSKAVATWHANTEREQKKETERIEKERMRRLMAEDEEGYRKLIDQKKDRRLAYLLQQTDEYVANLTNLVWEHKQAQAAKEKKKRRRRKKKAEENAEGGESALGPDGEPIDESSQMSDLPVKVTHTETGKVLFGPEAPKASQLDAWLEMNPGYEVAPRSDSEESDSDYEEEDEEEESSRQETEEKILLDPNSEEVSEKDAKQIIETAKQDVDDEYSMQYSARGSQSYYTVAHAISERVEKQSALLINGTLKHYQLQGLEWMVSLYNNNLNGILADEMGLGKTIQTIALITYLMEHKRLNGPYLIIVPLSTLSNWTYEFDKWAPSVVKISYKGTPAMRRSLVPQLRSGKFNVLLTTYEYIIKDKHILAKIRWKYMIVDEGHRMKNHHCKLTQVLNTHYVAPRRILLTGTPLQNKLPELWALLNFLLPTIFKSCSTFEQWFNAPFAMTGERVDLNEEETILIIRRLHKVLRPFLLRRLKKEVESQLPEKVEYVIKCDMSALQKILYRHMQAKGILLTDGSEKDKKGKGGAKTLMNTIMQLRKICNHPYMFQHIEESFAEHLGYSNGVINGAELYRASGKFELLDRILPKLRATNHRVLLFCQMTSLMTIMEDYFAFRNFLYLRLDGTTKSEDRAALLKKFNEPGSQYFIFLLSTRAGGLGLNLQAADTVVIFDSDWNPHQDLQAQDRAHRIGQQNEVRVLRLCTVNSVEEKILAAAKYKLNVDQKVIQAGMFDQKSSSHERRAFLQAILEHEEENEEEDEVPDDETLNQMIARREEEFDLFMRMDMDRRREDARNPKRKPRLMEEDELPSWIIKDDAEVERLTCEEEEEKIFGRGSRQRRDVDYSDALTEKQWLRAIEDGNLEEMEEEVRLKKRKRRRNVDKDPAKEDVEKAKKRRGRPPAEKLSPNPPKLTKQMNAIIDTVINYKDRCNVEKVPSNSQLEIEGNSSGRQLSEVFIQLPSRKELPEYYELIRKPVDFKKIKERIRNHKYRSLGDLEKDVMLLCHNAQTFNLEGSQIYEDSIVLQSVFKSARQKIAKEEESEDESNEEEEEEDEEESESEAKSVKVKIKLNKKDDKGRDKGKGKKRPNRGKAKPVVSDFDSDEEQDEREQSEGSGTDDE

Row | SMILES | PPB fu 10% Calf ([1]; 10% calf) [%] | fraction unbound at 5 h, 3 µmol/L [1, 5] | fraction unbound at 5 h, 3 µmol/L [1, 6] | Papp A→B at 1 µM [2, 7] [×10⁻⁶ cm/s] | Papp A→B at 1 µM [2, 8] [×10⁻⁶ cm/s] | Papp B→A at 2 h, 1 µM [3] [×10⁻⁶ cm/s] | Dmax ([4]; NCI-H1568 (4 h), mean ± SD) [%] | DC50 [4, 9] [nM] | DC50 [4, 10] | also measured
1 | Cc1ncsc1-c1ccc([C@H](COC(C)CN2CCC(c3ccc4c(c3)n(C3CCCC3)c3nc(=O)c5c(Br)cccc5n43)CC2)NC(=O)[C@@H]2C[C@@H](O)CN2C(=O)[C@@H](NC(=O)C2(F)CC2)C(C)(C)C)cc1 (stereo partly drawn) [compound 9] | 8.695 | 0.07 ± 0.02 | 0.0538 | 6 ± 2 | 4 ± 2 | 19 | 92 ± 8 | 32 ± 17 | 54.9 nM and 24.6 nM and 25.2 nM | Papp B→A at 1 µM ([2]; Caco-2, pH 7.4, Caco-2, b to a, read-out: Caco-2 Pba): 34 ×10⁻⁶ cm/s; Papp B→A at 1 µM ([2]; Caco-2, pH 7.4, Modified Caco-2, b to a, read-out: Modified Caco-2 Pba): 170 ×10⁻⁶ cm/s; efflux ratio at 2 h, 1 µM ([2]; Caco-2, pH 7.4, Modified Caco-2, read-out: Modified Caco-2 Efflux ratio): 44.8; Papp A→B at 1 µM ([3]; Modified Caco-2 + PGPi (Zosuquidar), read-out: Modified Caco-2 + PGPi (Zosuquidar) Pab): 12 ± 2 ×10⁻⁶ cm/s
2 | Cc1ncsc1-c1ccc([C@H](CCCCCN2CCC(c3ccc4c(c3)n(C3CCCC3)c3nc(=O)c5c(Br)cccc5n43)CC2)NC(=O)[C@@H]2C[C@@H](O)CN2C(=O)[C@@H](NC(=O)C2(F)CC2)C(C)(C)C)cc1 [compound 11] | 0.136 | 0.0014 | < 0.00092 | 1.4 ± 0.5 | 6 ± 3 | 24 | 90 ± 0.3 | 8 ± 4 | 5.2 nM and 13 nM and 6.7 nM | PPB fu 10% Human ([1]; 10% human): < 0.043% and < 0.038%; PPB fu 10% Mouse ([1]; 10% mouse): < 0.038% and < 0.228% and 1.281%; PPB fu 10% Rat ([1]; 10% rat): < 0.044% and < 0.048%; fraction unbound at 5 h, 3 µmol/L ([1]; human, 10% plasma (plasma dilution in PBS), 10% human, read-out: PPB fu 10% Human): < 0.00049; fraction unbound at 5 h, 3 µmol/L ([1]; human, plasma, human, fraction unbound, read-out: PPB fu Human): < 0.0004; fraction unbound at 5 h, 3 µmol/L ([1]; mouse, plasma, mouse, fraction unbound, read-out: PPB fu Mouse): < 0.0004; fraction unbound at 5 h, 3 µmol/L ([1]; rat, 10% plasma (plasma dilution in PBS), 10% rat, read-out: PPB fu 10% Rat): < 0.00047; fraction unbound at 5 h, 3 µmol/L ([1]; rat, plasma, rat, fraction unbound, read-out: PPB fu Rat): < 0.0004
